In ChEMBL document CHEMBL1165959, “Novel tricyclic Delta(2)-isoxazoline and 3-oxo-2-methyl-isoxazolidine derivatives: synthesis and binding affinity at neuronal nicotinic acetylcholine receptor subtypes” (Bioorg Med Chem, 2010):
pKi: −log10 of the molar value.

Columns and labels:
[1] = target: Neuronal acetylcholine receptor; alpha4/beta2 (Rattus norvegicus, UniProt P09483+P12390); experiment: Displacement of (+/-)-[3H]epibatidine from alpha4beta2 nAChR in rat cortical membrane; type: cell membranes
Chain of Neuronal acetylcholine receptor; alpha4/beta2 (P09483 whole entry): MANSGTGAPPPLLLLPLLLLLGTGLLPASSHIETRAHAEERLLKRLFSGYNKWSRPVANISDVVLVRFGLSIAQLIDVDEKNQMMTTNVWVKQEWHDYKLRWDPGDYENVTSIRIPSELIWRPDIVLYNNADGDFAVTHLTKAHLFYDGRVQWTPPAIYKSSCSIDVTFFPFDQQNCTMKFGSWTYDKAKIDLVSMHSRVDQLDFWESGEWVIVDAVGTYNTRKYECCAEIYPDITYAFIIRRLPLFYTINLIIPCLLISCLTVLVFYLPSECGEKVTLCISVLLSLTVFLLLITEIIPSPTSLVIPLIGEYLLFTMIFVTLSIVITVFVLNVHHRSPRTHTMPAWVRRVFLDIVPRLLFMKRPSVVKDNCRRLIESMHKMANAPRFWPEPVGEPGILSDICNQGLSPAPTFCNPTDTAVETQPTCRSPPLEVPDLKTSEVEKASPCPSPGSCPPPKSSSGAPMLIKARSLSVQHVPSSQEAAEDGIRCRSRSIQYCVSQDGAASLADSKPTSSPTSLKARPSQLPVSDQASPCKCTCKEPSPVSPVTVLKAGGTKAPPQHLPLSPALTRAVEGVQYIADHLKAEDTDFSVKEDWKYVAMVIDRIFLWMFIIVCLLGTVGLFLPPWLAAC
Chain of Neuronal acetylcholine receptor; alpha4/beta2 (P12390 whole entry): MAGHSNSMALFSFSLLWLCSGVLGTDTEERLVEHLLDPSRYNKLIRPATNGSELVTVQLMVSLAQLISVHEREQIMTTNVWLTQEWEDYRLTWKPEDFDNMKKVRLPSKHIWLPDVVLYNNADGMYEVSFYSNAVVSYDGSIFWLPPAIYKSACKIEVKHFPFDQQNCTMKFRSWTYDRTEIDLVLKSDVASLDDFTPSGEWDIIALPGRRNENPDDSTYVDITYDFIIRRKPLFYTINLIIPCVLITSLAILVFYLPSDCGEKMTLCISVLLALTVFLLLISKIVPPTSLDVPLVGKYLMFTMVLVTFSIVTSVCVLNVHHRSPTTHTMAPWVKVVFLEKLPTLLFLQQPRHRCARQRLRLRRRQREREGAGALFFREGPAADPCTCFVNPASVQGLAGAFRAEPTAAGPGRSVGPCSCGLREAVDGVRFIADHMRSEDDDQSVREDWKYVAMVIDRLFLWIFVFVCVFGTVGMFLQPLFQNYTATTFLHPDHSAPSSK

[2] = target: Neuronal acetylcholine receptor subunit alpha-7 (Rattus norvegicus, UniProt Q05941); experiment: Displacement of [125I]alpha-Bungarotoxin from alpha7 nAChR in rat cortical membrane; type: cell membranes
Chain of Neuronal acetylcholine receptor subunit alpha-7 (Q05941 whole entry): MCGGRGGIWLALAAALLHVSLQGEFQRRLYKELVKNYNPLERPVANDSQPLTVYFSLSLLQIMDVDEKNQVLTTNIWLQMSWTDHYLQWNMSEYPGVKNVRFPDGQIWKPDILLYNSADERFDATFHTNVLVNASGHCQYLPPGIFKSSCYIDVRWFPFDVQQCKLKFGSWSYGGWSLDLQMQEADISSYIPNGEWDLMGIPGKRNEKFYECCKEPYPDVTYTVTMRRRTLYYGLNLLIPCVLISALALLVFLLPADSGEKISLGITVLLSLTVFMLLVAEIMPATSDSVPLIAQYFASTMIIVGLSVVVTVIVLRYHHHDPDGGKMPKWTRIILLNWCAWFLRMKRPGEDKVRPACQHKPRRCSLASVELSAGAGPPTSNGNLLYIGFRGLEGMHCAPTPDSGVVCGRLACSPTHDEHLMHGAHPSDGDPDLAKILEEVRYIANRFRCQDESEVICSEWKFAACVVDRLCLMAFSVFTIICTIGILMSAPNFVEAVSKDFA

O=c1cccc2n1C[C@@H]1CNC[C@H]2C1 [CYTISINICLINE]
pKi [1]: 9.40 | pKi [2]: 6.52

COC1=NOC2C3CCC(CC12)N3 (centres undefined)
pKi [1]: 5.35 | pKi [2]: 4.55

CC(=O)C1=CC[C@H]2CC[C@@H]1N2
pKi [1]: 7.03 | pKi [2]: < 5.00

CN1OC2C3CCC(CC2C1=O)N3 (centres undefined)
pKi [1]: 4.00 | pKi [2]: < 4.00

CN1OC2C3CNCC(C3)CC2C1=O (centres undefined)
pKi [1]: 5.74 | pKi [2]: 5.02

CN1OC2CC3CNCC(C3)C2C1=O (centres undefined)
pKi [1]: 4.10 | pKi [2]: < 4.00

BrC1=NOC2CC3CCC(N3)C12 (centres undefined)
pKi [1]: 3.59 | pKi [2]: 3.96

CN1OC2CC3CCC(N3)C2C1=O (centres undefined)
pKi [1]: 4.30 | pKi [2]: < 4.00

BrC1=NOC2C3CCC(CC12)N3 (centres undefined)
pKi [1]: 6.12 | pKi [2]: 4.70

COC1=NOC2CC3CCC(N3)C12 (centres undefined)
pKi [1]: 4.28 | pKi [2]: 4.17

COC1=NOC2CC3CNCC(C3)C12 (centres undefined)
pKi [1]: 4.51 | pKi [2]: 3.77

BrC1=NOC2CC3CNCC(C3)C12 (centres undefined)
pKi [1]: 6.04 | pKi [2]: 4.55
